# Laboratory results from PMC8308925 (Pharmaceuticals, 2021).
# Like-named read-outs stand apart in the source and are kept apart here.
# T1: OATP1B3 (Homo sapiens, UniProt Q9NPD5)
# T1 sequence (Q9NPD5 1-702): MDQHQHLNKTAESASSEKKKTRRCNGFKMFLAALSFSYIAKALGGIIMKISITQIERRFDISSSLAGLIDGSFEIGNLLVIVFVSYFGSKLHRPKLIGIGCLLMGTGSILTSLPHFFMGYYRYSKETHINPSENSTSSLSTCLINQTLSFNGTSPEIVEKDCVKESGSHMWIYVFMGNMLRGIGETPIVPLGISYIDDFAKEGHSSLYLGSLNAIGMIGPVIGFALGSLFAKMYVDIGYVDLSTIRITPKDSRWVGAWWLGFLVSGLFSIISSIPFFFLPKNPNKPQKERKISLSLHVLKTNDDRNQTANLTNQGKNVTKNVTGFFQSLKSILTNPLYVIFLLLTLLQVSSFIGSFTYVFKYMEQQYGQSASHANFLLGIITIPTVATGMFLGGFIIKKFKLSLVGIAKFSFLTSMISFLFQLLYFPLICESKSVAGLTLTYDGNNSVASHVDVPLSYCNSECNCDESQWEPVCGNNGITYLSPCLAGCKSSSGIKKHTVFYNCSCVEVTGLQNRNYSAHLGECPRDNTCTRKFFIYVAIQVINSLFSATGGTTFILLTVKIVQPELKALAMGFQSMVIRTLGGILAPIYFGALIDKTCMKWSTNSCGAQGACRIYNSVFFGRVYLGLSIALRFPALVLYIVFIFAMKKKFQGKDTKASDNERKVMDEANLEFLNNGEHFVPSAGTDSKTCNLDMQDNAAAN
# T2: NTCP (Homo sapiens, UniProt Q14973)
# T2 sequence (Q14973 1-349): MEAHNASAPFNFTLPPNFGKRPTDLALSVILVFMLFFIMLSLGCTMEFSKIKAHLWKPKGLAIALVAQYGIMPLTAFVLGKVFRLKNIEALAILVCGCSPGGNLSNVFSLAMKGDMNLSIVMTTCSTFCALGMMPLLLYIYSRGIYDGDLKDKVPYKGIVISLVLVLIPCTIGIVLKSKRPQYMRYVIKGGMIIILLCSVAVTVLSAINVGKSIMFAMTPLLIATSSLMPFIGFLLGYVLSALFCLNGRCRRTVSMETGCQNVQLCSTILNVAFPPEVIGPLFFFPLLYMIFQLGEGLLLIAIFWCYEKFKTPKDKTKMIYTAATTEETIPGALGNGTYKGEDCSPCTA
# T3: ASBT (Homo sapiens, UniProt Q12908)
# T3 sequence (Q12908 1-348): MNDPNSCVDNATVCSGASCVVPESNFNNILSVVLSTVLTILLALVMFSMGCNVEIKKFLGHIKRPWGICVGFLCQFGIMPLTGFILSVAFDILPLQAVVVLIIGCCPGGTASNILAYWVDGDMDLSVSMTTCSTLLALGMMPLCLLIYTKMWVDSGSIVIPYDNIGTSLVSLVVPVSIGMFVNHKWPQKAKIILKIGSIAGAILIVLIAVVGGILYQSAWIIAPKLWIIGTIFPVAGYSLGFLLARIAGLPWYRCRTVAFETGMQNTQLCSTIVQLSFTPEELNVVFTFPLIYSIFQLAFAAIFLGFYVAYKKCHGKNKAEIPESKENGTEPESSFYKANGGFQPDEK
# T4: OATP1B1 (Homo sapiens, UniProt Q9Y6L6)
# T4 sequence (Q9Y6L6 1-691): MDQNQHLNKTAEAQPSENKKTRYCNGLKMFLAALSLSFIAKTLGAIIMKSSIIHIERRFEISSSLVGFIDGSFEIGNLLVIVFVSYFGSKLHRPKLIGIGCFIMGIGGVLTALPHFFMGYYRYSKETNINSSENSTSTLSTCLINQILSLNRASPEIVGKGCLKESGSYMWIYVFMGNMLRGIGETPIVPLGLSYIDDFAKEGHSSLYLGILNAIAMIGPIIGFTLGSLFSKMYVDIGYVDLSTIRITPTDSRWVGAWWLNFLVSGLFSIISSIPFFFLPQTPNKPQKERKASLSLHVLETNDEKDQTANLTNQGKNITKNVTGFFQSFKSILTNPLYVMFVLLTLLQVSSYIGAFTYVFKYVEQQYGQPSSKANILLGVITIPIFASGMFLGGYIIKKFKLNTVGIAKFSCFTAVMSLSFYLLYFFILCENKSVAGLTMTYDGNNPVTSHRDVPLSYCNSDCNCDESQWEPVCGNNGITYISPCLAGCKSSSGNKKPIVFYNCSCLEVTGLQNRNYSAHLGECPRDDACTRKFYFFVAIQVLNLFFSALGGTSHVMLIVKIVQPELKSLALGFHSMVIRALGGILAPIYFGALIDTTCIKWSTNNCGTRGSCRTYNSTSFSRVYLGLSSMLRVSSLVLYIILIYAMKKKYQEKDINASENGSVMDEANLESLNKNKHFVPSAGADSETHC
# T5: CYP2C8 (Homo sapiens, UniProt P10632)
# T5 sequence (P10632 1-490): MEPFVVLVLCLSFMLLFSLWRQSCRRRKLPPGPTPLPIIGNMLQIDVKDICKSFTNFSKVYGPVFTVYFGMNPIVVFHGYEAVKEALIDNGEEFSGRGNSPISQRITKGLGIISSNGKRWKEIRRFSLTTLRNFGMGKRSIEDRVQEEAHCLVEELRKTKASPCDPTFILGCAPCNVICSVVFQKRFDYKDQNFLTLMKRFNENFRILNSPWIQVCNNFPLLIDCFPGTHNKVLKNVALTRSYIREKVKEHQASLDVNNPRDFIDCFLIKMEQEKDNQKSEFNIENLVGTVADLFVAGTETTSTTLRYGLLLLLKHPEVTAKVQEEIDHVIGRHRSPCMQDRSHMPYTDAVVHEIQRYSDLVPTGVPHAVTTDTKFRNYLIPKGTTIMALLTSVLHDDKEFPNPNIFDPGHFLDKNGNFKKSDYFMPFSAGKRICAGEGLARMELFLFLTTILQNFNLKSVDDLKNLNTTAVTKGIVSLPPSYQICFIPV
# B1: OAT3 (Homo sapiens) (protein)
# chain: MTFSEILDRVGSMGHFQFLHVAILGLPILNMANHNLLQIFTAATPVHHCRPPHNASTGPWVLPMGPNGKPERCLRFVHPPNASLPNDTQRAMEPCLDGWVYNSTKDSIVTEWDLVCNSNKLKEMAQSIFMAGILIGGLVLGDLSDRFGRRPILTCSYLLLAASGSGAAFSPTFPIYMVFRFLCGFGISGITLSTVILNVEWVPTRMRAIMSTALGYCYTFGQFILPGLAYAIPQWRWLQLTVSIPFFVFFLSSWWTPESIRWLVLSGKSSKALKILRRVAVFNGKKEEGERLSLEELKLNLQKEISLAKAKYTASDLFRIPMLRRMTFCLSLAWFATGFAYYSLAMGVEEFGVNLYILQIIFGGVDVPAKFITILSLSYLGRHTTQAAALLLAGGAILALTFVPLDLQTVRTVLAVFGKGCLSSSFSCLFLYTSELYPTVIRQTGMGVSNLWTRVGSMVSPLVKITGEVQPFIPNIIYGITALLGGSAALFLPETLNQPLPETIEDLENWSLRAKKPKQEPEVEKASQRIPLQPHGPGLGSS
# Columns and labels:
# OATP1B3 [1] = biological target: T1, OATP1B3; test: in vitro
# Description: (§1) For the experiments, 0.8 × 10^5 cells per well were seeded in poly-D-lysine coated 24-well plates, except for HEK293-ASBT cells, where 1 × 10^5 cells per well were seeded in poly-D-lysine coated 24-well plates. After incubation for 48 h, the medium was removed and the cells were washed with DPBS and preincubated for 10 min in DPBS at 37 °C.
# (§2) Cells were disintegrated in 150 µL of 70% acetonitrile containing internal standard (IS; 200 nM of chenodeoxycholic acid). The cells were sonicated for 3 s and centrifuged at 13,000 rpm for 10 min. An aliquot (5 µL) from the supernatant (100 µL) was injected into LC-MS/MS system.
# (§3) The sample preparation method is as stated above.
# (§4) Vmax represents the maximum velocity at saturating substrate concentration, [S] represents the substrate concentration, Km represents the substrate concentration at half Vmax, and CLdiffusion represents the passive diffusion clearance.
# CYP2E1 = CYP2E1 (Homo sapiens, UniProt P05181); test: biochemical
# NTCP = biological target: T2, NTCP; test: Uptake of MT921 and probe substrate in HEK 293-NTCP cells (substrate specificity, kinetics)
# Description: as §1, §2, §3, §4
# ASBT [2] = biological target: T3, ASBT; test: Uptake of MT921 and probe substrate in HEK 293-ASBT cells (substrate specificity, kinetics); type: in vitro ADME; settings: ASBT-mediated MT921 uptake, 5–100 µM
# Description: as §1, §2, §3, §4
# OATP1B3 [3] = biological target: T1, OATP1B3
# OATP1B1 = biological target: T4, OATP1B1; test: in vitro
# CYP2C8 = biological target: T5, CYP2C8; settings: read-out: Positive control IC50; Rosiglitazone hydroxylation; in-house data, similar to the reference values [1]
# [4] = amlodipine PBPK model parameter, cited from earlier work
# [5] = cited from earlier work
# ASBT [6] = biological target: T3, ASBT; settings: inhibition of ASBT, implemented in DDI model; ref [61]; cited from earlier work
# [7] = substrate: C[C@H](CCC(=O)O)[C@H]1CC[C@H]2[C@@H]3[C@H](O)C[C@@H]4C[C@H](O)CC[C@]4(C)[C@H]3C[C@H](O)[C@]12C; test: cells, lysate or membranes named; settings: other: OAT3-mediated MT921 uptake, 5–300 µM, modified Michaelis–Menten fit; 37.0 °C
# [8] = Literature, ref [33] (supplement list)
# Sequence of CYP2E1 (P05181 whole entry): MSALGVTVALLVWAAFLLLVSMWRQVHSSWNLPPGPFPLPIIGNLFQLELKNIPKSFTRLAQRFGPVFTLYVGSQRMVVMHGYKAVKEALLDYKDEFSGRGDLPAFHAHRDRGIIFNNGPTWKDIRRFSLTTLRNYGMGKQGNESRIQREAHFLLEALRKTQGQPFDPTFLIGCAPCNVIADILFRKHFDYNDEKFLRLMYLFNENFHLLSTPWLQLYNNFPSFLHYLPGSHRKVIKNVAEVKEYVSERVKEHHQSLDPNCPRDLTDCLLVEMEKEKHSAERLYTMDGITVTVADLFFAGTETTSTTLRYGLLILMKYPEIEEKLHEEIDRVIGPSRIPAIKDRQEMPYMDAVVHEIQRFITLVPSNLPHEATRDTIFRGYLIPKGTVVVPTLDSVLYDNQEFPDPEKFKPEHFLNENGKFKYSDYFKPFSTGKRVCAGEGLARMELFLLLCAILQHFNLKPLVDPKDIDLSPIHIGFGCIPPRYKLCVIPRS
molecule,measurement,setting,value
C[C@]12CC[C@@H]3c4ccc(O)cc4CC[C@H]3[C@@H]1CC[C@@H]2O[C@@H]1O[C@H](C(=O)O)[C@@H](O)[C@H](O)[C@H]1O,Increase of probe substrate uptake rate in transporter-expressing cells compared to mock cells,"OATP1B3 [1]; 0.06 µM probe substrate, HEK 293-OATP1B3",9.6 fold
CCN(CC)C(=S)S [Diethyldithio-carbamate],IC50,CYP2E1,16.7 µM
"C[C@H](CCC(=O)O)[C@H]1CC[C@H]2[C@@H]3[C@H](O)C[C@@H]4C[C@H](O)CC[C@]4(C)[C@H]3C[C@H](O)[C@]12C [MT921, cholic acid]",Km,"OATP1B3 [1]; OATP1B3-mediated MT921 uptake, 5–100 µM, modified Michaelis–Menten fit",27.4 µM
same,intrinsic clearance (Vmax/Km),OATP1B3 [1]; human,3.46 µL/mg protein/min
same,Km at 10 min,"OATP1B3 [1]; human, Km, OATP1B3-mediated MT921 uptake, 5–100 µM, modified Michaelis–Menten fit",27.4 µM
same,Vmax,"NTCP; NTCP-mediated MT921 uptake, 5–100 µM",409.28 pmol/mg protein/min
same,CLdiffusion,"NTCP; passive diffusion clearance, HEK 293-NTCP",1.27 µL/mg protein/min
same,Vmax,ASBT [2],302.31 pmol/mg protein/min
same,IC50,OATP1B3 [3],38.3 µM
same,Ki,OATP1B3 [3],38.2 µM
same,IC50 at 5 min,OATP1B1,63.2 µM
O=c1c(O)c(-c2ccc(O)c(O)c2)oc2cc(O)cc(O)c12 [Quercetin],IC50,CYP2C8,8.47 µM
C[C@H](CCC(=O)NCCS(=O)(=O)O)[C@H]1CC[C@H]2[C@@H]3[C@H](O)C[C@@H]4C[C@H](O)CC[C@]4(C)[C@H]3C[C@H](O)[C@]12C [[^3H]taurocholate],Increase of probe substrate uptake rate in transporter-expressing cells compared to mock cells,"NTCP; 0.8 µM probe substrate, HEK 293-NTCP",102.1 fold
CCOC(=O)C1=C(COCCN)NC(C)=C(C(=O)OC)C1c1ccccc1Cl (centres unmarked) [amlodipine],Fraction unbound,[4]; [8],0.07
same,Log P,[4]; [8],3.43 Log units
same,Solubility,"[4]; extracted from published literature, no reference given",75.3 µg/mL
same,Cmax Obs,"[5]; 2.5 mg po (tab), sd, ref [28] (supplement list)",1.94 ng/mL
same,Cmax Obs,"[5]; 5 mg po (tab), sd, first line of the study, ref [27] (supplement list)",3.56 ng/mL
same,Cmax Obs,"[5]; 5 mg po (tab), sd, ref [17] (supplement list)",2.36 ng/mL
same,Cmax Obs,"[5]; 5 mg po (tab), sd, ref [20] (supplement list)",3.18 ng/mL
same,Cmax Obs,"[5]; 5 mg po (tab), sd, ref [23] (supplement list)",2.44 ng/mL
same,Cmax Obs,"[5]; 5 mg po (tab), sd, ref [25] (supplement list)",2.54 ng/mL
same,Cmax Obs,"[5]; 5 mg po (tab), sd, ref [30] (supplement list)",3.07 ng/mL
same,Cmax Obs,"[5]; 5 mg po (tab), sd, second line of the study, ref [27] (supplement list)",3.64 ng/mL
same,Cmax Obs,"[5]; 10 mg po (tab), md, ref [16] (supplement list)",18.77 ng/mL
same,Cmax Obs,"[5]; 10 mg po (tab), md, ref [21] (supplement list)",18.73 ng/mL
same,Cmax Obs,"[5]; 10 mg po (tab), sd, first line of the study, ref [22] (supplement list)",5.32 ng/mL
same,Cmax Obs,"[5]; 10 mg po (tab), sd, ref [17] (supplement list)",5.13 ng/mL
same,Cmax Obs,"[5]; 10 mg po (tab), sd, ref [18] (supplement list)",5.51 ng/mL
same,Cmax Obs,"[5]; 10 mg po (tab), sd, ref [19] (supplement list)",5.40 ng/mL
same,Cmax Obs,"[5]; 10 mg po (tab), sd, ref [20] (supplement list)",6.85 ng/mL
same,Cmax Obs,"[5]; 10 mg po (tab), sd, ref [24] (supplement list)",8.13 ng/mL
same,Cmax Obs,"[5]; 10 mg po (tab), sd, ref [26] (supplement list)",6.41 ng/mL
same,Cmax Obs,"[5]; 10 mg po (tab), sd, ref [29] (supplement list)",4.92 ng/mL
same,Cmax Obs,"[5]; 10 mg po (tab), sd, second line of the study, ref [22] (supplement list)",4.37 ng/mL
same,Ki,ASBT [6],42.1 µM
B1,Km,[7],133.33 µM
same,Vmax/Km,[7],1.28 µL/mg protein/min
